In assay [1] the test system is G1 (DNA, G4) AGGGTTAGGGTTAGGGTTAGGG
Briefly: UV/Vis titration. The following applies: 10 mM Tris-HCl pH 7.04, 20 μM complex, apparent, per base pair.

The test system of assay [2] is G2T1 (DNA, G4) AGGGTTAGGGTTAGGGTTAGGGTTAGGGTTAGGGTTAGGGTTAGGG
Briefly: UV/Vis titration. The conditions noted are these: 10 mM Tris-HCl pH 7.04, 20 μM complex, apparent, per base pair.

For assay [3] the test system is unchanged. Briefly: CD melting, 295 nm. The following applies: 100 mM NaCl, 10 mM Tris-HCl pH 7.04, 2.5 μM DNA.
For assay [4] the test system is unchanged. Briefly: native gel electrophoresis. The following applies: 100 mM NaCl, 10 mM Tris-HCl pH 7.04, 8 μM DNA.
The subject of assay [5] is G1 (DNA, G4) AGGGTTAGGGTTAGGGTTAGGG
Briefly: native gel electrophoresis. The conditions noted are these: 100 mM NaCl; 10 mM Tris-HCl pH 7.04; 16 μM DNA, 32 μM complex.

In assay [6] the test system is G2T4 (DNA, G4) AGGGTTAGGGTTAGGGTTAGGGTTATTATTATTAGGGTTAGGGTTAGGGTTAGGG
Briefly: CD melting, 295 nm. The conditions noted are these: 100 mM NaCl, 10 mM Tris-HCl pH 7.04.

In assay [7] the test system is G1 (DNA, G4) AGGGTTAGGGTTAGGGTTAGGG
Briefly: CD melting, 295 nm. The following applies: 100 mM NaCl, 10 mM Tris-HCl pH 7.04.

Assay [8] relates to G2T6 (DNA, G4) AGGGTTAGGGTTAGGGTTAGGGTTATTATTATTATTATTAGGGTTAGGGTTAGGGTTAGGG
Briefly: CD melting, 295 nm. The following applies: 100 mM NaCl, 10 mM Tris-HCl pH 7.04.

Assay [9] relates to G2T2 (DNA, G4) AGGGTTAGGGTTAGGGTTAGGGTTATTAGGGTTAGGGTTAGGGTTAGGG
Briefly: CD melting, 295 nm. The following applies: 100 mM NaCl, 10 mM Tris-HCl pH 7.04.

The test system of assay [10] is Ap7+Ap31 (DNA, G4, 2-aminopurine at 7 and 31) AGGGTTAGGGTTAGGGTTAGGGTTAGGGTTAGGGTTAGGGTTAGGG
Briefly: 2-aminopurine fluorescence quenching. The following applies: 100 mM NaCl; 10 mM Tris-HCl pH 7.04, 25 °C; 5 μM DNA.

Assay [11] deals with Ap13 (DNA, G4, 2-aminopurine at 13) AGGGTTAGGGTTAGGGTTAGGGTTAGGGTTAGGGTTAGGGTTAGGG
Briefly: 2-aminopurine fluorescence quenching. The following applies: 100 mM NaCl; 10 mM Tris-HCl pH 7.04, 25 °C; 5 μM DNA.

Assay [12] concerns Ap13+Ap37 (DNA, G4, 2-aminopurine at 13 and 37) AGGGTTAGGGTTAGGGTTAGGGTTAGGGTTAGGGTTAGGGTTAGGG
Briefly: 2-aminopurine fluorescence quenching. The conditions noted are these: 100 mM NaCl; 10 mM Tris-HCl pH 7.04, 25 °C; 5 μM DNA.

Assay [13] relates to Ap31 (DNA, G4, 2-aminopurine at 31) AGGGTTAGGGTTAGGGTTAGGGTTAGGGTTAGGGTTAGGGTTAGGG
Briefly: 2-aminopurine fluorescence quenching and Job's plot. The conditions noted are these: 100 mM NaCl; 10 mM Tris-HCl pH 7.04, 25 °C; Job's plot at 3 μM total.

Assay [14] has as its system Ap37 (DNA, G4, 2-aminopurine at 37) AGGGTTAGGGTTAGGGTTAGGGTTAGGGTTAGGGTTAGGGTTAGGG
Briefly: 2-aminopurine fluorescence quenching. The conditions noted are these: 100 mM NaCl; 10 mM Tris-HCl pH 7.04, 25 °C; 5 μM DNA.

The test system of assay [15] is Ap7 (DNA, G4, 2-aminopurine at 7) AGGGTTAGGGTTAGGGTTAGGGTTAGGGTTAGGGTTAGGGTTAGGG
Briefly: 2-aminopurine fluorescence quenching. The following applies: 100 mM NaCl; 10 mM Tris-HCl pH 7.04, 25 °C; 5 μM DNA.

The mark [16] stands for this setting: 2:1 complex per G-quadruplex unit (4:1 per strand).

Molecules are shown by their SMILES.

In the case of `[Ni+2].[Ni+2].[O-]c1cc(OCCN2CCCCC2)ccc1C=Nc1ccc(OCCOCCOc2ccc(N=Cc3ccc(OCCN4CCCCC4)cc3[O-])c(N=Cc3ccc(OCCN4CCCCC4)cc3[O-])c2)cc1N=Cc1ccc(OCCN2CCCCC2)cc1[O-]`, the Ka in [1] (100 mM KCl, 310 nm) was 2.39±0.35×10^6 M^-1; in [1] (100 mM NaCl, 370 nm) it was 1.27±0.24×10^6 M^−1; in [2] (100 mM KCl, 310 nm) it was 1.19±0.16×10^6 M^-1; in assay [2] (100 mM NaCl, 310 nm), 1.08±0.24×10^6 M^−1. This molecule gave a Δ T m in [3] (5 μM complex (2:1)) of 7.7 °C.
Turning to `[Ni+2].[Ni+2].[O-]c1cc(OCCN2CCCCC2)ccc1C=Nc1ccc(OCCOCCOCCOc2ccc(N=Cc3ccc(OCCN4CCCCC4)cc3[O-])c(N=Cc3ccc(OCCN4CCCCC4)cc3[O-])c2)cc1N=Cc1ccc(OCCN2CCCCC2)cc1[O-]`, the Ka is given as 3.53±0.33×10^6 M^-1 in assay [1] (100 mM KCl, 310 nm); 8.30±0.75×10^5 M^−1 in [1] (100 mM NaCl, 310 nm); 2.52±0.24×10^6 M^-1 in assay [2] (100 mM KCl, 310 nm); 2.06±0.40×10^6 M^−1 in assay [2] (100 mM NaCl, 310 nm). In assay [3] (5 μM complex (2:1)), this molecule yielded a Δ T m of 8.4 °C.
As for `[Ni+2].[O-]c1cc(OCCN2CCCCC2)ccc1C=Nc1ccccc1N=Cc1ccc(OCCN2CCCCC2)cc1[O-]`, the binding entry in assay [4] (32 μM complex) and in assay [5] was “yes” each time. The Ka is 1.15±0.18×10^7 M^-1 in [1] (100 mM KCl, 370 nm); 4.62±0.64×10^6 M^−1 in [1] (100 mM NaCl, 370 nm); 1.50±0.22×10^7 M^-1 in [2] (100 mM KCl, 310 nm); 2.34±0.32×10^7 M^−1 in assay [2] (100 mM NaCl, 310 nm). Besides, the “Δ T m” value turned out to be 25.5 °C in [6] (setting [16]); 13.4 °C in assay [7] (complex:DNA 2:1); 23.5 °C in [8] (setting [16]); 25.1 °C in assay [9] (setting [16]); 20.8 °C in assay [3] (10 μM complex (4:1)).
For `[Ni+2].[Ni+2].[O-]c1cc(OCCN2CCCCC2)ccc1C=Nc1ccc(OCCOCCOCCOCCOc2ccc(N=Cc3ccc(OCCN4CCCCC4)cc3[O-])c(N=Cc3ccc(OCCN4CCCCC4)cc3[O-])c2)cc1N=Cc1ccc(OCCN2CCCCC2)cc1[O-]`, the binding entry in [4] (16 μM complex), in [10], in [11], in assay [12], in assay [13] and in [14] was “yes” in each case. Also, the binding result in assay [15] is given as “yes”. Further, the Ka is listed as 2.19±0.32×10^6 M^-1 in [1] (100 mM KCl, 370 nm); 1.05±0.20×10^6 M^−1 in [1] (100 mM NaCl, 370 nm); 1.37±0.25×10^7 M^-1 in [2] (100 mM KCl, 370 nm); 3.15±0.42×10^7 M^−1 in [2] (100 mM NaCl, 370 nm). Moreover, the “Δ T m” value in assay [6] (complex:DNA 2:1) is 8.1 °C; in assay [7] (complex:DNA 1:1), 2.0 °C; in assay [8] (complex:DNA 2:1), 6.3 °C; in assay [9] (complex:DNA 2:1), 11.9 °C; in assay [3] (5 μM complex (2:1)), 14.1 °C.

These data come from article PMC5516229 (2017).
